In patent publication US8993542B2, “Methods of treating viral infections” (priority 2008, dated 2015):

Key:
HIV-1Ba-L = tested on: HIV-1Ba-L
Experimental: The anti-HIV-1 activity of CMX157 is evaluated in two-drug combination studies with twenty-four different FDA-approved anti-HIV inhibitors. Each two-drug combination is tested three times in CEM T-lymphocytic cells or MAGI-CCR5 cells acutely infected with the laboratory-adapted strain HIV-1IIIB or HIV-1Ba-L, respectively. Viral growth/inhibition is evaluated by measuring virus-induced cytopathic effects (CPE) in CEM cells or by β-galactosidase reporter gene induction in MAGI-CCR5 cells at the experimental endpoint. The cytotoxicity of each two-drug combination is also evaluated in parallel with the antiviral evaluations. The concentrations of CMX157 used in these evaluations are selected in order to test a broad range of concentrations and to provide as complete a dose response curve as possible under the limitations of eight total concentrations. […] The “positive antagonism control” of d4T (stavudine) in combination with RBV was tested in parallel with each of the assays that were performed. Analysis of drug interactions for each of the two-drug combinations is performed using the Prichard and Shipman MacSynergy II three-dimensional model for statistical evaluation of combination assays.

HIV-1 = conditions: monotherapy in naïve patients (Louie et al.); cited from earlier work
HIV = test: microbe, parasite or virus in culture; assay type: cell-based
HIV-1IIIB = test: Two-drug combination antiviral assay in CEM cells (CPE), MacSynergy II; assay type: cell-based
[1] = in combination with CMX157, MAGI-CCR5 cells, 95% confidence
[2] = in combination with CMX157, CEM-SS cells, 95% confidence

Molecule: maraviroc [Maraviroc (MVC)]
- Antagonism Volume, Result 1 (HIV-1Ba-L; [1]): −3.82 nM^2 %, μM^2 % or nMμM %
- Antagonism Volume, Result 2 (HIV-1Ba-L; [1]): −3.12 nM^2 %, μM^2 % or nMμM %
- Antagonism Volume, Result 3 (HIV-1Ba-L; [1]): 0 nM^2 %, μM^2 % or nMμM %
- Mean Antagonism Volume (n = 3) (HIV-1Ba-L; [1]): −2.31 nM^2 %, μM^2 % or nMμM %
- Mean Synergy Volume (n = 3) (HIV-1Ba-L; [1]): 85.3 nM^2 %, μM^2 % or nMμM %
- Synergy Volume, Result 1 (HIV-1Ba-L; [1]): 145 nM^2 %, μM^2 % or nMμM %
- Synergy Volume, Result 2 (HIV-1Ba-L; [1]): 14.1 nM^2 %, μM^2 % or nMμM %
- Synergy Volume, Result 3 (HIV-1Ba-L; [1]): 96.6 nM^2 %, μM^2 % or nMμM %
- Interpretation of Antiviral Results (MacSynergy) (HIV-1Ba-L; two-drug combination (with CMX157; control d4T/RBV), MAGI-CCR5 cells): slightly synergistic

Molecule: CC(C)OC(=O)OCOP(=O)(CO[C@H](C)Cn1cnc2c(N)ncnc21)OCOC(=O)OC(C)C.O=C(O)/C=C/C(=O)O [TDF, 2,4,6,8-Tetraoxa-5-phosphanonanedioic acid, 5-[[(1R)-2-(6-amino-9H-purin-9-yl)-1-methylethoxy]methyl]-, bis(1-methylethyl) ester, 5-oxide, (2E)-2-butenedioate (1:1)]
- viral load response (HIV-1): −1.5 log

Molecule: Nc1nc(=O)n(C2CSC(CO)O2)cc1F (stereo not shown) [FTC, 2-hydroxymethyl-5-(5-fluorocytosin-1-yl)-1,3-oxathiolane]
- IC50 (HIV; Human immunodeficiency virus 1, PANEL 1, WT): 0.89 µM
- IC50 (HIV; Human immunodeficiency virus 1, PANEL 2, WT): 1.57 µM
- IC50 (HIV; Human immunodeficiency virus 1, PANEL 3, 6 TAMs, no 184): 5.73 µM
- IC50 (HIV; Human immunodeficiency virus 1, PANEL 6, 6 TAMs + 184): > 100 µM
- IC50 (HIV; Human immunodeficiency virus 1, PANEL 7, 184V): > 100 µM
- IC50 (HIV; Human immunodeficiency virus 1, PANEL 9, 69ins, no 184): 29.6 µM
- IC50 (HIV; Human immunodeficiency virus 1, PANEL 12, 69ins + 184): > 100 µM
- IC50 (HIV; Human immunodeficiency virus 1, PANEL 14, 65R, no 184): 19.3 µM
- IC50 (HIV; Human immunodeficiency virus 1, PANEL 15, 65R + 184V): > 100 µM
- IC50 (HIV; Human immunodeficiency virus 1, PANEL 17, L74V): 2.14 µM
- IC50 (HIV; Human immunodeficiency virus 1, PANEL 19, L74V + M184V): > 100 µM
- IC50 (HIV; Human immunodeficiency virus 1, PANEL 26, 151M, no 184): 34.7 µM
- IC50 (HIV; Human immunodeficiency virus 1, PANEL 28, 151M + 184): > 100 µM
- IC50 (HIV; Human immunodeficiency virus 1, PANEL 29, L74V − SDM): 1.68 µM
- IC50 (HIV; Human immunodeficiency virus 1, PANEL 30, M184V − SDM): > 100 µM
- IC50 (HIV; Human immunodeficiency virus 1, PANEL 31, K65R − SDM): 12.9 µM
- IC50 (HIV; Human immunodeficiency virus 1, PANEL 33, T215Y): 2.64 µM
- IC50 (HIV; Human immunodeficiency virus 1, PANEL 34, T215Y + M184V): > 100 µM
- IC50 (HIV; Human immunodeficiency virus 1, PANEL 35, M41L + T215Y): 3.13 µM
- IC50 (HIV; Human immunodeficiency virus 1, PANEL 37, M41L + T215Y + M184V): > 100 µM
- IC50 (HIV; Human immunodeficiency virus 1, PANEL 38, M41L + L210W + T215Y): 4.22 µM
- IC50 (HIV; Human immunodeficiency virus 1, PANEL 39, M41L + L210W + T215Y): 2.16 µM
- IC50 (HIV; Human immunodeficiency virus 1, PANEL 40, M41L + L210W + T215Y + M184V): > 100 µM
- IC50 (HIV; Human immunodeficiency virus 1, PANEL 41, M41L + L210W + T215Y + M184V): > 100 µM
- IC50 (HIV; Human immunodeficiency virus 1, PANEL 42, D67N + K70R): 3.28 µM
- IC50 (HIV; Human immunodeficiency virus 1, PANEL 44, D67N + K70R + T215F + K219E + M184V): > 100 µM
- IC50 (HIV; Human immunodeficiency virus 1, PANEL 45, L210W + T215Y): 2.62 µM
- IC50 (HIV; Human immunodeficiency virus 1, PANEL 46, D67N + K70E): 3.39 µM
- IC50 (HIV; Human immunodeficiency virus 1, PANEL 47, D67N + K70E + M184V): > 100 µM
- IC50 (HIV; Human immunodeficiency virus 1, PANEL 48, K70E + M184V): > 100 µM
- IC50 Fold Change (HIV; PANEL 1, WT): 0.78
- IC50 Fold Change (HIV; PANEL 2, WT): 1.38
- IC50 Fold Change (HIV; PANEL 3, 6 TAMs, no 184): 5.02
- IC50 Fold Change (HIV; PANEL 6, 6 TAMs + 184): >87.6048
- IC50 Fold Change (HIV; PANEL 7, 184V): >87.6048
- IC50 Fold Change (HIV; PANEL 9, 69ins, no 184): 26.00
- IC50 Fold Change (HIV; PANEL 12, 69ins + 184): >87.6048
- IC50 Fold Change (HIV; PANEL 14, 65R, no 184): 17.00
- IC50 Fold Change (HIV; PANEL 15, 65R + 184V): >87.6048
- IC50 Fold Change (HIV; PANEL 17, L74V): 1.87
- IC50 Fold Change (HIV; PANEL 19, L74V + M184V): >87.6048
- IC50 Fold Change (HIV; PANEL 26, 151M, no 184): 30.00
- IC50 Fold Change (HIV; PANEL 28, 151M + 184): >87.6048
- IC50 Fold Change (HIV; PANEL 29, L74V − SDM): 1.47
- IC50 Fold Change (HIV; PANEL 30, M184V − SDM): >87.6048
- IC50 Fold Change (HIV; PANEL 31, K65R − SDM): 11.00
- IC50 Fold Change (HIV; PANEL 33, T215Y): 2.31
- IC50 Fold Change (HIV; PANEL 34, T215Y + M184V): >87.6048
- IC50 Fold Change (HIV; PANEL 35, M41L + T215Y): 2.74
- IC50 Fold Change (HIV; PANEL 37, M41L + T215Y + M184V): >87.6048
- IC50 Fold Change (HIV; PANEL 38, M41L + L210W + T215Y): 3.70
- IC50 Fold Change (HIV; PANEL 39, M41L + L210W + T215Y): 1.89
- IC50 Fold Change (HIV; PANEL 40, M41L + L210W + T215Y + M184V): >87.6048
- IC50 Fold Change (HIV; PANEL 41, M41L + L210W + T215Y + M184V): >87.6048
- IC50 Fold Change (HIV; PANEL 42, D67N + K70R): 2.87
- IC50 Fold Change (HIV; PANEL 44, D67N + K70R + T215F + K219E + M184V): >87.6048
- IC50 Fold Change (HIV; PANEL 45, L210W + T215Y): 2.29
- IC50 Fold Change (HIV; PANEL 46, D67N + K70E): 2.97
- IC50 Fold Change (HIV; PANEL 47, D67N + K70E + M184V): >87.6048
- IC50 Fold Change (HIV; PANEL 48, K70E + M184V): >87.6048
- Antagonism Volume, Result 1 (HIV-1IIIB; [2]): 0 nM^2 %, μM^2 % or nMμM %
- Antagonism Volume, Result 2 (HIV-1IIIB; [2]): 0 nM^2 %, μM^2 % or nMμM %
- Antagonism Volume, Result 3 (HIV-1IIIB; [2]): 0 nM^2 %, μM^2 % or nMμM %
- Mean Antagonism Volume (n = 3) (HIV-1IIIB; [2]): 0 nM^2 %, μM^2 % or nMμM %
- Mean Synergy Volume (n = 3) (HIV-1IIIB; [2]): 72.5 nM^2 %, μM^2 % or nMμM %
- Synergy Volume, Result 1 (HIV-1IIIB; [2]): 61.5 nM^2 %, μM^2 % or nMμM %
- Synergy Volume, Result 2 (HIV-1IIIB; [2]): 72.0 nM^2 %, μM^2 % or nMμM %
- Synergy Volume, Result 3 (HIV-1IIIB; [2]): 84.1 nM^2 %, μM^2 % or nMμM %
- Interpretation of Antiviral Results (MacSynergy) (HIV-1IIIB; two-drug combination (with CMX157; control d4T/RBV), CEM-SS cells, listed as emtricitabine): slightly synergistic
